The values that follow are results of earlier work, collected in patent publication US20210330903A1, “Multiple Dose Nasal Spray of Naloxone” (Navinta III Inc, priority 2020, published 2021).

Each structure is given as a SMILES string.

Regarding `C=CCN1CC[C@]23c4c5ccc(O)c4O[C@H]2C(=O)CC[C@@]3(O)[C@H]1C5.Cl` [Naloxone hydrochloride, 17-Allyl-4,5α-epoxy-3,14 dihydroxymorphinan-6-one hydrochloride], the solubility in alcohol entry (alcohol) is recorded as “slightly soluble”. The solubility in chloroform result (chloroform) is recorded as “practically insoluble”. Moreover, for the setting “dilute acids”, the “solubility in dilute acids” value is “soluble”. The solubility in ether entry (ether) is listed as “practically insoluble”. Besides, the “solubility in strong alkali” value (strong alkali) was “soluble”. In addition, for the setting “water”, the solubility in water result is given as “soluble”.
